Source: ChEMBL document CHEMBL3046947, “Synthesis and antimicrobial activity studies of some novel substituted phenylhydrazono-1H-tetrazol-5-yl-acetonitriles” (2010)
The source made the active and inactive calls. No cut-off for these calls is given here.

What was measured:
Pseudomonas aeruginosa [1] = assay: Antibacterial activity against Pseudomonas aeruginosa […] at 1 mg/ml after 24 hr by agar well diffusion method; format: functional; details: for zone of inhibition at 1000 µg/mL: read-out: IZ
Staphylococcus aureus = assay: Antibacterial activity against Staphylococcus aureus TP32 clinical isolate at 1 mg/ml after 24 hr by agar well diffusion method; format: functional; details: for zone of inhibition at 1000 µg/mL: TP32, 24 h, read-out: IZ
Escherichia coli [2] = assay: Antibacterial activity against Escherichia coli ATCC 35218 at 1 mg/ml after 24 hr by agar well diffusion method; format: functional; details: for zone of inhibition at 1000 µg/mL: ATCC 35218, 24 h, read-out: IZ
Bacillus cereus [3] = assay: Antibacterial activity against Bacillus cereus RSKK 863 at 1 mg/ml after 24 hr by agar well diffusion method; format: functional; details: for zone of inhibition at 1000 µg/mL: RSKK 863, 24 h, read-out: IZ
Pseudomonas aeruginosa [4] = assay: Antibacterial activity against Pseudomonas aeruginosa […] at 30 ug/disk after 24 hr by agar well diffusion method; format: functional
Bacillus cereus [5] = assay: Antibacterial activity against Bacillus cereus RSKK 863 at 30 ug/disk after 24 hr by agar well diffusion method; format: functional; details: for zone of inhibition at 30 µg/disc: RSKK 863, 24 h, read-out: IZ
Escherichia coli [6] = assay: Antibacterial activity against Escherichia coli ATCC 35218 at 30 ug/disk after 24 hr by agar well diffusion method; format: functional, organism-based
Bacillus cereus [7] = assay: Antibacterial activity against Bacillus cereus RSKK 863 at 15 ug/disk after 24 hr by agar well diffusion method; format: functional; details: RSKK 863, 24 h, read-out: IZ
Pseudomonas aeruginosa [8] = assay: Antibacterial activity against Pseudomonas aeruginosa […] at 15 ug/disk after 24 hr by agar well diffusion method; format: functional, organism-based
Escherichia coli [9] = assay: Antibacterial activity against Escherichia coli ATCC 35218 at 15 ug/disk after 24 hr by agar well diffusion method; format: functional; details: ATCC 35218, 24 h, read-out: IZ
Bacillus cereus [10] = assay: Antibacterial activity against Bacillus cereus RSKK 863 at 10 ug/disk after 24 hr by agar well diffusion method; format: functional; details: RSKK 863, 24 h, read-out: IZ
Pseudomonas aeruginosa [11] = assay: Antibacterial activity against Pseudomonas aeruginosa […] at 10 ug/disk after 24 hr by agar well diffusion method; format: functional, organism-based
Escherichia coli [12] = assay: Antibacterial activity against Escherichia coli ATCC 35218 at 10 ug/disk after 24 hr by agar well diffusion method; format: functional; details: ATCC 35218, 24 h, read-out: IZ
Bacillus cereus [13] = assay: Antibacterial activity against Bacillus cereus RSKK 863 at 10 units/disk after 24 hr by agar well diffusion method; format: functional, organism-based
Escherichia coli [14] = assay: Antibacterial activity against Escherichia coli ATCC 35218 at 10 units/disk after 24 hr by agar well diffusion method; format: functional
Pseudomonas aeruginosa [15] = assay: Antibacterial activity against Pseudomonas aeruginosa […] at 10 units/disk after 24 hr by agar well diffusion method; format: functional, organism-based

`N#C/C(=N\Nc1ccc([N+](=O)[O-])cc1)c1nnn[nH]1` was tested, and the zone of inhibition at 1000 µg/mL (Pseudomonas aeruginosa [1]) was 5 mm, the zone of inhibition at 1000 µg/mL (Staphylococcus aureus) was 3 mm and the zone of inhibition at 1000 µg/mL (Escherichia coli [2]) was 10 mm. It also gave a zone of inhibition at 1000 µg/mL (Bacillus cereus [3]) of 11 mm.

`N#C/C(=N\Nc1ccccc1)c1nnn[nH]1` showed a zone of inhibition at 1000 µg/mL (Pseudomonas aeruginosa [1]) of 9 mm, a zone of inhibition at 1000 µg/mL (Staphylococcus aureus) of 8 mm and a zone of inhibition at 1000 µg/mL (Escherichia coli [2]) of 7 mm. For the same compound, the zone of inhibition at 1000 µg/mL (Bacillus cereus [3]) was 15 mm.

Compound `Cc1ccc(N/N=C(\C#N)c2nnn[nH]2)cc1` has a zone of inhibition at 1000 µg/mL (Pseudomonas aeruginosa [1]) of 8 mm, a zone of inhibition at 1000 µg/mL (Staphylococcus aureus) of 8 mm and a zone of inhibition at 1000 µg/mL (Escherichia coli [2]) of 10 mm. It also gave a zone of inhibition at 1000 µg/mL (Bacillus cereus [3]) of 20 mm.

In the case of `N#C/C(=N\Nc1ccc(I)cc1)c1nnn[nH]1`, the zone of inhibition at 1000 µg/mL (Pseudomonas aeruginosa [1]) is reported as 9 mm, the zone of inhibition at 1000 µg/mL (Staphylococcus aureus) is reported as 8 mm and the zone of inhibition at 1000 µg/mL (Escherichia coli [2]) is reported as 7 mm. It also gave a zone of inhibition at 1000 µg/mL (Bacillus cereus [3]) of 10 mm.

In the case of `N#C/C(=N\Nc1ccccc1Cl)c1nnn[nH]1`, the zone of inhibition at 1000 µg/mL (Pseudomonas aeruginosa [1]) is reported as 10 mm, the zone of inhibition at 1000 µg/mL (Staphylococcus aureus) is reported as 7 mm and the “inhibition zone (IZ)” value (Escherichia coli [2]) is reported as “inactive”. It also gave a zone of inhibition at 1000 µg/mL (Bacillus cereus [3]) of 5 mm.

For `COc1ccccc1N/N=C(\C#N)c1nnn[nH]1`, the “inhibition zone (IZ)” value (Pseudomonas aeruginosa [1]) was “inactive”, the “inhibition zone (IZ)” value (Staphylococcus aureus) was “inactive” and the “inhibition zone (IZ)” value (Escherichia coli [2]) was “inactive”. For the same compound, the “inhibition zone (IZ)” value (Bacillus cereus [3]) was “inactive”.

For `CN(C)[C@@H]1C(O)=C(C(N)=O)C(=O)[C@@]2(O)C(O)=C3C(=O)c4c(O)cccc4[C@@](C)(O)[C@H]3C[C@@H]12` [TETRACYCLINE], the zone of inhibition at 30 µg/disc (Pseudomonas aeruginosa [4]; read-out: IZ) was 16 mm, the zone of inhibition at 30 µg/disc (Bacillus cereus [5]) was 17 mm and the “inhibition zone (IZ)” value (Escherichia coli [6]) was “inactive”.

In the case of `CN[C@H](CC(C)C)C(=O)N[C@H]1C(=O)N[C@@H](CC(N)=O)C(=O)N[C@H]2C(=O)N[C@H]3C(=O)N[C@H](C(=O)N[C@H](C(=O)O)c4cc(O)cc(O)c4-c4cc3ccc4O)[C@H](O)c3ccc(c(Cl)c3)Oc3cc2cc(c3O[C@@H]2O[C@H](CO)[C@@H](O)[C@H](O)[C@H]2O[C@H]2C[C@](C)(N)[C@H](O)[C@H](C)O2)Oc2ccc(cc2Cl)[C@H]1O` [VANCOMYCIN], the “inhibition zone (IZ)” value (Pseudomonas aeruginosa [4]) is reported as “inactive”, the zone of inhibition at 30 µg/disc (Bacillus cereus [5]) is reported as 17 mm and the “inhibition zone (IZ)” value (Escherichia coli [6]) is reported as “inactive”.

In the case of `N#C/C(=N\Nc1ccccc1[N+](=O)[O-])c1nnn[nH]1`, the zone of inhibition at 1000 µg/mL (Pseudomonas aeruginosa [1]) is reported as 4 mm, the zone of inhibition at 1000 µg/mL (Staphylococcus aureus) is reported as 4 mm and the zone of inhibition at 1000 µg/mL (Escherichia coli [2]) is reported as 7 mm. The zone of inhibition at 1000 µg/mL (Bacillus cereus [3]) was 10 mm.

For `CC[C@H]1OC(=O)[C@H](C)[C@@H](O[C@H]2C[C@@](C)(OC)[C@@H](O)[C@H](C)O2)[C@H](C)[C@@H](O[C@@H]2O[C@H](C)C[C@H](N(C)C)[C@H]2O)[C@](C)(O)C[C@@H](C)C(=O)[C@H](C)[C@@H](O)[C@]1(C)O` [ERYTHROMYCIN], the zone of inhibition at 15 µg/disc (Bacillus cereus [7]) was 19 mm, the “inhibition zone (IZ)” value (Pseudomonas aeruginosa [8]) was “inactive” and the zone of inhibition at 15 µg/disc (Escherichia coli [9]) was 11 mm.

`N#C/C(=N\Nc1ccccc1F)c1nnn[nH]1` showed a zone of inhibition at 1000 µg/mL (Pseudomonas aeruginosa [1]) of 4 mm, a zone of inhibition at 1000 µg/mL (Staphylococcus aureus) of 5 mm and a zone of inhibition at 1000 µg/mL (Escherichia coli [2]) of 14 mm. The zone of inhibition at 1000 µg/mL (Bacillus cereus [3]) was 19 mm.

In the case of `N#C/C(=N\Nc1ccc(F)cc1)c1nnn[nH]1`, the zone of inhibition at 1000 µg/mL (Pseudomonas aeruginosa [1]) is reported as 8 mm, the zone of inhibition at 1000 µg/mL (Staphylococcus aureus) is reported as 10 mm and the zone of inhibition at 1000 µg/mL (Escherichia coli [2]) is reported as 11 mm. For the same compound, the zone of inhibition at 1000 µg/mL (Bacillus cereus [3]) was 19 mm.

`CC1(C)S[C@@H]2[C@H](NC(=O)[C@H](N)c3ccccc3)C(=O)N2[C@H]1C(=O)O` [AMPICILLIN] was tested, and the zone of inhibition at 10 µg/disc (Bacillus cereus [10]) was 20 mm, the “inhibition zone (IZ)” value (Pseudomonas aeruginosa [11]) was “inactive” and the zone of inhibition at 10 µg/disc (Escherichia coli [12]) was 9 mm.

`N#C/C(=N\Nc1ccccc1I)c1nnn[nH]1` gave a zone of inhibition at 1000 µg/mL (Pseudomonas aeruginosa [1]) of 5 mm, a zone of inhibition at 1000 µg/mL (Staphylococcus aureus) of 3 mm and a zone of inhibition at 1000 µg/mL (Escherichia coli [2]) of 7 mm. The zone of inhibition at 1000 µg/mL (Bacillus cereus [3]) was 17 mm.

With `OC(Cn1cncn1)(Cn1cncn1)c1ccc(F)cc1F` the “inhibition zone (IZ)” value (Pseudomonas aeruginosa [4]) was “inactive”, the “inhibition zone (IZ)” value (Bacillus cereus [5]) was “inactive” and the “inhibition zone (IZ)” value (Escherichia coli [6]) was “inactive”.

`Cc1ccccc1N/N=C(\C#N)c1nnn[nH]1` showed a zone of inhibition at 1000 µg/mL (Pseudomonas aeruginosa [1]) of 5 mm, a zone of inhibition at 1000 µg/mL (Staphylococcus aureus) of 4 mm and a zone of inhibition at 1000 µg/mL (Escherichia coli [2]) of 10 mm. For the same compound, the zone of inhibition at 1000 µg/mL (Bacillus cereus [3]) was 20 mm.

In the case of `COc1ccc(N/N=C(\C#N)c2nnn[nH]2)cc1`, the “inhibition zone (IZ)” value (Pseudomonas aeruginosa [1]) is reported as “inactive”, the “inhibition zone (IZ)” value (Staphylococcus aureus) is reported as “inactive” and the zone of inhibition at 1000 µg/mL (Escherichia coli [2]) is reported as 10 mm. It also gave a zone of inhibition at 1000 µg/mL (Bacillus cereus [3]) of 7 mm.

`N#C/C(=N\Nc1ccc(Cl)cc1)c1nnn[nH]1` was tested, and the zone of inhibition at 1000 µg/mL (Pseudomonas aeruginosa [1]) was 8 mm, the zone of inhibition at 1000 µg/mL (Staphylococcus aureus) was 6 mm and the zone of inhibition at 1000 µg/mL (Escherichia coli [2]) was 10 mm. For the same compound, the zone of inhibition at 1000 µg/mL (Bacillus cereus [3]) was 21 mm.

`CC1(C)S[C@@H]2[C@H](NC(=O)Cc3ccccc3)C(=O)N2[C@H]1C(=O)O` [PENICILLIN G] was tested, and the “inhibition zone (IZ)” value (Bacillus cereus [13]) was “inactive”, the “inhibition zone (IZ)” value (Escherichia coli [14]) was 17 mm and the “inhibition zone (IZ)” value (Pseudomonas aeruginosa [15]) was “inactive”.

Compound `N#C/C(=N\Nc1ccc(Br)cc1)c1nnn[nH]1` has a zone of inhibition at 1000 µg/mL (Pseudomonas aeruginosa [1]) of 8 mm, a zone of inhibition at 1000 µg/mL (Staphylococcus aureus) of 6 mm and a zone of inhibition at 1000 µg/mL (Escherichia coli [2]) of 14 mm. It also gave a zone of inhibition at 1000 µg/mL (Bacillus cereus [3]) of 20 mm.

With `N#C/C(=N\Nc1ccccc1Br)c1nnn[nH]1` the zone of inhibition at 1000 µg/mL (Pseudomonas aeruginosa [1]) was 3 mm, the “inhibition zone (IZ)” value (Staphylococcus aureus) was “inactive” and the zone of inhibition at 1000 µg/mL (Escherichia coli [2]) was 7 mm. It also gave a zone of inhibition at 1000 µg/mL (Bacillus cereus [3]) of 12 mm.
